Results as given in patent publication US10851064B2, “ACSS2 inhibitors and methods of use thereof” (METABOMED LTD., priority 2017, dated 2020).
pIC50: −log10 of the molar value.

What follows are compounds tested against ACSS2 (Homo sapiens, UniProt Q9NR19) (assay: biochemical).
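Also: Cell-free human ACSS2 enzyme reaction with acetate, CoA and ATP, 90 min at 37 C, coupled to pyrophosphatase, phosphate release detected by Biomol Green absorbance at 620 nm.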

Chain of ACSS2 (Q9NR19 whole entry): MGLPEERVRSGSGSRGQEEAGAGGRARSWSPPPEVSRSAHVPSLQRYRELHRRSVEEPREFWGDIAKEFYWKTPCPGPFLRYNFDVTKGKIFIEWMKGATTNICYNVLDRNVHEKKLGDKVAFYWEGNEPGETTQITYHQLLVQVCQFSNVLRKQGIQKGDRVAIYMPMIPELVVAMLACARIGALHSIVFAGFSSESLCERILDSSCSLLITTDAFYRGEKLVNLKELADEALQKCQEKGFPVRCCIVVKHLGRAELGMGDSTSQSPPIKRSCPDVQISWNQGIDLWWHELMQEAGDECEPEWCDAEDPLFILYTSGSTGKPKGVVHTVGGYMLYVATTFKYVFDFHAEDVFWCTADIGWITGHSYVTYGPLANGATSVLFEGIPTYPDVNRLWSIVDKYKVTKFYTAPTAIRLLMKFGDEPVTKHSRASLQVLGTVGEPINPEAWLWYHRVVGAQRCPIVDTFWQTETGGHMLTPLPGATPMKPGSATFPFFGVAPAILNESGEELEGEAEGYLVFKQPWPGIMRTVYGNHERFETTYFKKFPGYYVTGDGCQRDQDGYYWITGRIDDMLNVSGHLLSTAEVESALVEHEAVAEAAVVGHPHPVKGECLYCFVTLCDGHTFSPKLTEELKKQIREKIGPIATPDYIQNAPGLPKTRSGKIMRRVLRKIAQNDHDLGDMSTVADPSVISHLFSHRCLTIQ

Structure (SMILES)	pIC50
CC1=NN(c2ccc(C(F)(F)F)cc2)C(=O)C1C(=O)Nc1ccccc1 (stereo not shown) [compound 201, 3-methyl-5-oxo-N-phenyl-1-(4-(trifluoromethyl)phenyl)-4,5-dihydro-1H-pyrazole-4-carboxamide]	4.00 to 6.00
CCc1cccc(NC(=O)C2C(=O)N(c3ccccc3)N=C2C(F)(F)F)c1 (stereo not shown) [compound 130, N-(3-ethylphenyl)-5-oxo-1-phenyl-3-(trifluoromethyl)-4,5-dihydro-1H-pyrazole-4-carboxamide]	4.00 to 6.00
CCc1cccc(NC(=O)C2C(=O)N(c3ccc(NC(C)=O)cc3)N=C2C)c1 (stereo not shown) [compound 144, 1-(4-acetamidophenyl)-N-(3-ethylphenyl)-3-methyl-5-oxo-4,5-dihydro-1H-pyrazole-4-carboxamide]	6.00 to 7.00
CC1=NN(c2ccccc2)C(=O)C1C(=O)Nc1nccs1 (stereo not shown) [compound 217, 3-methyl-5-oxo-1-phenyl-N-(thiazol-2-yl)-4,5-dihydro-1H-pyrazole-4-carboxamide]	< 4.00
CC1=NN(c2ccccc2)C(=O)C1C(=O)Nc1ccc2[nH]cnc2c1 (stereo not shown) [compound 278]	4.00 to 6.00
CC1=NN(c2ccccc2)C(=O)C1C(=O)Nc1cccc2ccccc12 (stereo not shown) [compound 185, 3-methyl-N-(naphthalen-1-yl)-5-oxo-1-phenyl-4,5-dihydro-1H-pyrazole-4-carboxamide]	4.00 to 6.00
CC1=NN(c2ccccc2)C(=O)C1C(=O)Nc1cccc(C(C)C)c1 (stereo not shown) [compound 100, N-(3-isopropylphenyl)-3-methyl-5-oxo-1-phenyl-4,5-dihydro-1H-pyrazole-4-carboxamide]	6.00 to 7.00
COc1ccc(N2N=C(C)C(C(=O)Nc3cccc(C(C)(F)F)c3)C2=O)cc1-c1ccncc1 (stereo not shown) [compound 431]	8.22 to 11.00
COc1ccc(N2N=C(C)C(C(=O)Nc3cccc(C(C)(F)F)c3)C2=O)cc1-c1ccc(-c2ccccc2)cc1 (stereo not shown) [compound 396]	7.00 to 8.22
CC1=NN(c2ccc(OC(F)F)cc2)C(=O)C1C(=O)N(C)c1cccc(Cl)c1 (stereo not shown) [compound 395]	6.00 to 7.00
CC1=NN(c2ccc(OC(F)F)cc2)C(=O)C1C(=O)Nc1cccc(C(C)(F)F)c1 (stereo not shown) [compound 418]	6.00 to 7.00
CCc1csc(NC(=O)C2C(=O)N(c3ccccc3)N=C2C)c1 (stereo not shown) [compound 285]	6.00 to 7.00
COc1ccc(N2N=C(C)C(C(=O)Nc3cccc(C(C)(F)F)c3)C2=O)cc1-c1cccnc1 (stereo not shown) [compound 445]	8.22 to 11.00
CC1=NN(c2ccccc2)C(=O)C1C(=O)Nc1cccc(CC(F)(F)F)c1 (stereo not shown) [compound 161, 3-methyl-5-oxo-1-phenyl-N-(3-(2,2,2-trifluoroethyl)phenyl)-4,5-dihydro-1H-pyrazole-4-carboxamide]	7.00 to 8.22
CC1=NN(c2cccc(C#CCNC(=O)COCCOCCOCCOCC(=O)Nc3ccc4c(c3)C(=O)N(C3CCC(=O)NC3=O)C4=O)c2)C(=O)C1C(=O)Nc1cccc(C(C)(F)F)c1 (stereo not shown) [compound 379]	8.22 to 11.00
CC1=NN(c2ccccc2)C(=O)C1C(=O)NC(=O)c1ccccc1 (stereo not shown) [compound 207, N-benzoyl-3-methyl-5-oxo-1-phenyl-4,5-dihydro-1H-pyrazole-4-carboxamide]	4.00 to 6.00
CC(=O)c1cc(NC(=O)C2C(=O)N(c3ccc(OC(F)F)cc3)N=C2C)c2[nH]ccc2c1 (stereo not shown) [compound 408]	6.00 to 7.00
CC1=NN(c2ccc(OC3COC3)cc2)C(=O)C1C(=O)Nc1cccc(C(C)(F)F)c1 (stereo not shown) [compound 439]	8.22 to 11.00
CCc1cccc(NC(=O)C2C(=O)N(c3ccccc3)N=C2C(C)C)c1 (stereo not shown) [compound 128, N-(3-ethylphenyl)-3-isopropyl-5-oxo-1-phenyl-4,5-dihydro-1H-pyrazole-4-carboxamide]	4.00 to 6.00
CC1=NN(c2ccc(Cc3ccccc3)c(-c3ccccc3)c2)C(=O)C1C(=O)Nc1cccc(C(C)(F)F)c1 (stereo not shown) [compound 375]	8.22 to 11.00
CC(O)(c1ccccc1)c1cccc(NC(=O)C2C=NN(c3ccc(OC(F)F)cc3)C2=O)c1 (stereo not shown) [compound 416]	7.00 to 8.22
CC1=NN(c2cccc(C(=O)O)c2)C(=O)C1C(=O)Nc1cccc(-c2ncc[nH]2)c1 (stereo not shown) [compound 172]	7.00 to 8.22
